Experimental data taken from paper PMC12516390 (ACS Medicinal Chemistry Letters, 2025).
Values after ≈ are worked out from the molar mass of the structure shown. Where two headings read alike, the source gives them in different places.

Experiments:
[1] = target: recombinant M^Pro (Severe acute respiratory syndrome coronavirus 2, UniProt P0DTD1); assay: SARS-CoV-2 Mpro screening and IC50 determination (QS1 fluorogenic substrate, Drag assay); format: biochemical; settings: for inhibition at 10 µM: read-out: M^Pro (%inh)@10μM
[2] = target: Human Recombinant Cathepsin S (Homo sapiens, UniProt P25774); assay: Cathepsin selectivity screening, Cat S (Z-Val-Val-Arg-AMC); format: biochemical; settings: Z-Val-Val-Arg-AMC substrate
Human Recombinant Cathepsin S, sequence (P25774 115-331): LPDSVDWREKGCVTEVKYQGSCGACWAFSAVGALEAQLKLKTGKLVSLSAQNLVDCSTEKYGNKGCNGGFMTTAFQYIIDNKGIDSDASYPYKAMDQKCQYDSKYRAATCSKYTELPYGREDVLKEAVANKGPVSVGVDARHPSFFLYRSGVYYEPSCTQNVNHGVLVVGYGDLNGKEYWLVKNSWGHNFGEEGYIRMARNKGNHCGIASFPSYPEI

[3] = target: T1, Human Recombinant Cathepsin K (Homo sapiens, UniProt P43235); assay: Cathepsin selectivity screening, Cat K (Z-Phe-Arg-AMC); format: biochemical; settings: Z-Phe-Arg-AMC substrate
T1 sequence (P43235 115-329): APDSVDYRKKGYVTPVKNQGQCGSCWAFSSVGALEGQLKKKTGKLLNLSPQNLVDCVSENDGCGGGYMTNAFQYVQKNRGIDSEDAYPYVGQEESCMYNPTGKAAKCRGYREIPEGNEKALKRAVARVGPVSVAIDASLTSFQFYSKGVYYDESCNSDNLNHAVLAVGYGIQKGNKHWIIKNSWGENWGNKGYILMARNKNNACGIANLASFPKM

[4] = target: Human Recombinant Cathepsin B (Homo sapiens, UniProt P07858); assay: Cathepsin selectivity screening, Cat B (Z-Phe-Arg-AMC); format: biochemical; settings: for IC50: Z-Phe-Arg-AMC substrate
[5] = target: Human Recombinant Cathepsin L (Homo sapiens, UniProt P07711); assay: Cathepsin selectivity screening, Cat L (Z-Phe-Arg-AMC); format: biochemical; settings: Z-Phe-Arg-AMC substrate
Human Recombinant Cathepsin L, sequence (P07711 114-333): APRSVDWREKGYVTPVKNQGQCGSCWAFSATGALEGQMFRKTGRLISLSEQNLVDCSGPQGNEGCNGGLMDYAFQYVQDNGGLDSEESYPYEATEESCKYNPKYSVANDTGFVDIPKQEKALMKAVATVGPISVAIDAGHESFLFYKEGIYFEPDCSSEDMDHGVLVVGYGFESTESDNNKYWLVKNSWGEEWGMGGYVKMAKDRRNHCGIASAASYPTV

[6] = in vitro; settings: African monkey
[7] = physchem; settings: pH 7.4, aqueous buffer, kinetic from dmso stock
[8] = physchem; settings: pH 7.4
[9] = in vitro; settings: mouse, microsomes, pH 7.4
[10] = in vitro; settings: human, microsomes, pH 7.4
[11] = target: PL^Pro (Severe acute respiratory syndrome coronavirus 2, UniProt P0DTD1); assay: SARS-CoV-2 PLpro screening (Ac-LRGG-ACC substrate); format: biochemical; settings: read-out: PL^Pro (%inh)@10μM
[12] = IC50 (μM) M^Pro, recombinant M^Pro, 20 μM QS1 substrate, Table 5
[13] = Table 5, read-out: IC50 (μM) CatS
[14] = Table 5, read-out: IC50 (μM) CatK
[15] = Table 5, read-out: IC50 (μM) CatB
[16] = Table 5, read-out: IC50 (μM) CatL
[17] = M^Pro IC50 (μM), recombinant M^Pro, 20 μM QS1 substrate, Table 3
[18] = M^Pro IC50 (μM), recombinant M^Pro, Table 6
[19] = M^Pro IC50 (μM), recombinant M^Pro, 20 μM QS1 (Ac-Abu-Tle-Leu-Gln-ACC) substrate, Table 1

Compound | IC50 [1, 12] [µM] | IC50 [2, 13] [µM] | IC50 [3, 14] [µM] | IC50 [4, 15] [µM] | IC50 [5, 16] [µM] | CC50 [6] [nM] | other results
COc1cccc(-c2ccc(C(=O)N[C@@H](CC3CCCCC3)C(=O)N[C@H](C#N)C[C@@H]3CCNC3=O)c(F)c2)c1 [23b] | 0.691 | 0.059 | 1.34 | 0.238 | > 10 |  | 
COc1cccc(-c2ccc(C(=O)N[C@@H](CC3CCCCC3)C(=O)N[C@H](C#N)C[C@@H]3CCNC3=O)c(Cl)c2)c1 [23d] | 0.094 | 0.011 | 0.887 | 0.137 | > 10 | > 100000 | 
COc1ccc(-c2ccc(C(=O)N[C@@H](CC(C)C)C(=O)N[C@H](C#N)C[C@@H]3CCNC3=O)c(Cl)c2)cc1 [18r] |  |  |  |  |  | 40100 | IC50 ([1]; M^Pro IC50 (nM), Table 4): 0.045 µM; IC50 [1, 17]: 0.045 µM; IC50 ([2]; Table 4, read-out: CatS IC50): 0.0246 µM; IC50 ([3]; Table 4, read-out: CatK IC50): 0.123 µM; IC50 ([4]; Table 4, read-out: CatB IC50): 0.193 µM; IC50 ([5]; Table 4, read-out: CatL IC50): > 10 µM
COc1cccc(-c2ccc(C(=O)N3C[C@H]4[C@@H]([C@H]3C(=O)N[C@H](C#N)C[C@@H]3CCNC3=O)C4(C)C)c(Cl)c2)c1 [22f] | 0.12 | 1.29 | 4.52 | > 10 | > 10 | > 100000 | IC50 [1, 18]: 0.12 µM; activity against cathepsin B (in words) [4]: completely abolished; solubility kinetic [7]: 82 µM (≈ 43.9 µg/mL); logD [8]: 3.5; microsomal CLint at 1 μM [9]: 450 µL/min/mg; microsomal CLint at 1 μM [10]: 209 µL/min/mg
COc1ccc(-c2ccc(C(=O)N[C@@H](CC3CCCCC3)C(=O)N[C@H](C#N)C[C@@H]3CCNC3=O)c(F)c2)cc1 [23a] | 0.807 | 0.016 | > 10 | > 10 | > 10 |  | 
COc1ccc(-c2ccc(C(=O)N[C@@H](CC(C)C)C(=O)N[C@H](C#N)C[C@@H]3CCNC3=O)c(F)c2)cc1 [18b] |  |  |  |  |  | 51600 | IC50 ([1]; M^Pro IC50 (nM), Table 4): 0.178 µM; IC50 [1, 17]: 0.178 µM; IC50 ([2]; Table 4, read-out: CatS IC50): 0.232 µM; IC50 ([3]; Table 4, read-out: CatK IC50): 0.077 µM; IC50 ([4]; Table 4, read-out: CatB IC50): 0.106 µM; IC50 ([5]; Table 4, read-out: CatL IC50): > 10 µM
COc1ccc(-c2ccc(C(=O)N[C@@H](CC3CCCCC3)C(=O)N[C@H](C#N)C[C@@H]3CCNC3=O)c(Cl)c2)cc1 [23c] | 0.077 | 0.011 | 1.52 | 0.104 | > 10 | > 100000 | IC50 [1, 18]: 0.077 µM
COc1cccc(-c2ccc(C(=O)N3C[C@@H]4CCC[C@@H]4[C@H]3C(=O)N[C@H](C#N)C[C@@H]3CCNC3=O)c(Cl)c2)c1 [22l] | 1.06 | 0.538 | 1.07 | > 10 | > 10 |  | 
COc1ccc(-c2ccc(C(=O)N[C@@H](CC3CCCCC3)C(=O)N[C@H](C#N)C[C@@H]3CCNC3=O)cc2)cc1 [12l] |  | 0.006 | 1.64 | > 10 | > 10 |  | IC50 [1, 19]: 1.76 µM; inhibition at 10 µM [1]: < 95%; inhibition at 10 µM [11]: < 50%
COc1ccc(-c2ccc(C(=O)N3C[C@@H]4CCC[C@@H]4[C@H]3C(=O)N[C@H](C#N)C[C@@H]3CCNC3=O)c(Cl)c2)cc1 [22k] | 0.743 | 0.718 | 0.68 | > 10 | > 10 |  | 
COc1cccc(-c2ccc(C(=O)N[C@@H](CC3CCCCC3)C(=O)N[C@H](C#N)C[C@@H]3CCNC3=O)cc2)c1 [12k] |  | 0.011 | > 10 | > 10 | > 10 |  | IC50 [1, 19]: 2.01 µM; inhibition at 10 µM [1]: < 95%; inhibition at 10 µM [11]: < 50%
CC(C)C[C@H](NC(=O)c1ccc(-c2cccc3nn(C)cc23)cc1F)C(=O)N[C@H](C#N)C[C@@H]1CCNC1=O [18a] |  |  |  |  |  | > 100000 | IC50 ([1]; M^Pro IC50 (nM), Table 4): 0.163 µM; IC50 [1, 17]: 0.162 µM; IC50 ([2]; Table 4, read-out: CatS IC50): 0.0279 µM; IC50 ([3]; Table 4, read-out: CatK IC50): 0.0485 µM; IC50 ([4]; Table 4, read-out: CatB IC50): 0.142 µM; IC50 ([5]; Table 4, read-out: CatL IC50): > 10 µM
COc1cccc(-c2ccc(C(=O)N[C@@H](CC(C)C)C(=O)N[C@H](C#N)C[C@@H]3CCNC3=O)c(Cl)c2)c1 [18n] |  | 0.015 | 0.329 | 0.115 |  | > 100000 | IC50 ([1]; M^Pro IC50 (nM), Table 4): 0.049 µM; IC50 [1, 17]: 0.049 µM; IC50 [1, 18]: 0.049 µM; IC50 ([2]; Table 4, read-out: CatS IC50): 0.0155 µM; IC50 ([3]; Table 4, read-out: CatK IC50): 0.329 µM; IC50 ([4]; Table 4, read-out: CatB IC50): 0.115 µM; IC50 ([5]; Table 4, read-out: CatL IC50): > 10 µM; solubility kinetic [7]: 34 µM (≈ 17.4 µg/mL); logD [8]: 3.1; microsomal CLint at 1 μM [9]: 111 µL/min/mg; microsomal CLint at 1 μM [10]: 40 µL/min/mg
COc1ccc(-c2ccc(C(=O)N3C[C@H]4[C@@H]([C@H]3C(=O)N[C@H](C#N)C[C@@H]3CCNC3=O)C4(C)C)c(Cl)c2)cc1 [22e] | 0.087 | 1.03 | 2.08 | > 10 | > 10 | > 100000 | IC50 [1, 18]: 0.087 µM; activity against cathepsin B (in words) [4]: completely abolished; solubility kinetic [7]: 97 µM (≈ 51.9 µg/mL); logD [8]: 3.4; microsomal CLint at 1 μM [9]: 450 µL/min/mg; microsomal CLint at 1 μM [10]: 183 µL/min/mg
